From patent US20250134949A1, “PROMININ-1 PEPTIDE FOR TREATING LUNG INJURY” (Children's Medical Center Corporation, priority 2017, published 2025)
No end group written: not given here.

Key:
VEGFR2 = experiment: PR1P induced VEGFR2 phosphorylation in Beas-2B cells with or without SU5416 (FACS); type: cell-based, human; conditions: then PR1P (125 μM) 20 min
Protocol: (§1) It was previously shown in part that PR1P binds VEGF, increases VEGF binding to VEGF receptors, and induces downstream VEGF signaling including the phosphorylation of VEGF receptor 2 and AKT. To determine whether PR1P mediation of VEGF signaling requires VEGFR2 activation, lung epithelial cells (Beas-2B) were treated with the specific VEGFR2 inhibitor SU5416 ([…]) or with vehicle alone as control for 24 hours and then exposed PR1P (125 μM) or vehicle for 20 min. Cells were then harvested and levels of phosphorylated VEGFR2 and AKT were assessed using FACS. […] These findings strongly support the notion that PR1P upregulation of VEGF signaling requires VEGFR-2 activation.
(§2) Serum-starved monolayers of Beas-2B cells were incubated in the presence or absence of SU5416 (20 μM) for 24 h on 10 cm tissue culture plates. After single washing with PBS, the cells were treated with 3 ml of starvation media in the presence of PR1P (125 […]) or vehicle as control for 20 minutes at 37° C. At the conclusion of the experiments, cells were prepared for FACS analysis using standard procedures. Cells were analyzed for levels of phosphorylated VEGFR2 and AKT using anti pAKT and pVEGFR2 antibodies (Cell signaling, Danvers MA).

AKT = experiment: PR1P induced AKT phosphorylation in Beas-2B cells with or without SU5416 (FACS); type: cell-based, human; conditions: then PR1P (125 μM) 20 min
Protocol: as §1, §2

[1] = Observation of ill effects during inhalation studies; type: in vivo, mouse; conditions: 24-hour experimental period, delivered directly into the lungs; data not shown
Excerpt: These and similar findings led many to believe that over-expression of VEGF in the lung could be curative in emphysema (54), however, enthusiasm for this type of therapy is tempered by clinical trials using systemic VEGF therapy (41) that were complicated by systemic and pulmonary toxicities including increased vascular permeability leading to hypotension (55) and tissue and lung edema (56, 57). […] The results outlined herein raise the possibility that a strategy to use PR1P to upregulate endogenous VEGF signaling in vivo may avoid toxicity seen with alternative and more conventional forms of VEGF therapy. […] PR1P could be used to avoid complications associated with constitutive VEGF over-expression or systemic VEGF treatment by stabilizing and potentiating the signaling of local endogenous VEGF. It will be important to clearly delineate the fate and pharmacokinetics of PR1P in evaluating its toxicity potential. Because of its small size, PR1P could also be more easily packaged as cargo inside nanometer or micron sized storage vehicles for tissue or cell targeted therapy.
8 week old female C3H/HENCrl (Charles River Laboratories, Cambridge, MA) mice (22±2 g) were placed in a whole-animal nebulization chamber (14×5×8 cm) and allowed to spontaneously inhale (20 min) nebulized LPS (Salmonela enterica, Sigma-Aldrich, St. Louis, MO), PR1P, scrambled peptide (SP), or VEGF. […]

VEGFR-2 = experiment: Lung cell VEGFR-2 phosphorylation after inhalation of nebulized peptide (FACS); type: in vivo, mouse; conditions: live mice, nebulized (20 min), lung cells harvested 30 minutes after end of inhalation; compared to SP
Excerpt: VEGF mediates cell survival and apoptosis pathways via binding to and activation of VEGFR-2 and signaling through the PI3K/AKT pathway (13). […] To evaluate the effect of PR1P on VEGF signaling in the lung, both FACS and Western blotting were used to measure the levels of phosphorylated VEGFR-2 and AKT in the human lung respiratory epithelial cell line BEAS-2B in response to treatment with PR1P, scrambled peptide (SP), or VEGF. […] To determine whether PR1P also effectively modulated VEGF signaling in the lungs of animals (i.e. whether PR1P was bioactive in-vivo) live mice were treated with nebulized VEGF, SP or PR1P (20 min) and performed FACS analysis on lung cells harvested from treated animals 30 minutes after the end of inhalation. […]
Lungs were harvested from treated animals, cut into small pieces using surgical scissors and suspended and gently stirred in 3 ml serum free BEBM containing Liberase (2 mg ml, Sigma-Aldrich, St. Louis, MO). […] Cells were subsequently washed with FACS media and analyzed by a flow cytometer (BD Biosciences, San Jose, CA, USA) running FlowJo 7.2.2, software (Tomy Digital Biology. Tokyo, Japan).

[2] = in vivo; cited from earlier work

With `Cc1cc(C)c(/C=C2\C(=O)Nc3ccccc32)[nH]1` [SU5416] the “effect of PR1P on the phosphorylation level of VEGFR-2 in presence of inhibitor” value (VEGFR2) was “significantly reduced” and the “effect of PR1P on the phosphorylation level of AKT in presence of inhibitor” value (AKT) was “significantly reduced”.

In the case of DRVQRQTTTVVA [PR1P, DRVQRQTTTVVA], the “ill effects from therapy” value [1] is reported as “ill effects were not observed”.

For VEGF, the “lung cell VEGFR-2 phosphorylation” value (VEGFR-2) was “increased pVEGFR2”.

For “elastase: porcine pancreatic elastase (PPE) used intra-tracheally to induce emphysema phenotype”, the “half-life of exogenous elastase administered into the animal lungs” value [2] is listed as “approximately 50 minutes”.
